Assay results from publication PMC3474771, “Evaluation of 14 Organic Solvents and Carriers for Screening Applications in Zebrafish Embryos and Larvae” (PLoS ONE, 2012).
Read-outs that look alike come from different tables or passages of the source.

System: zebrafish embryos and larvae
Conditions: for Maximum-tolerated concentration (MTC): highest concentration with no phenotypic abnormalities, followed to 9 dpf; for MTC / tolerated concentration: over all or most developmental stages analyzed, 24-hour exposure
Description: Zebrafish embryos of the AB wild-type strain (originally obtained from the Zebrafish International Resource Center, Eugene, Oregon, USA) were raised at 28°C. Zebrafish husbandry, embryo collection, and embryo and larva maintenance were performed as described, [21]. Toxicity assays were standardly performed in 24-well microtiter plates (wrapped with Parafilm to limit solvent evaporation) using 10 embryos per well in 1 ml of 0.3× Danieau's medium (17 mM NaCl, 2 mM KCl, 0.12 mM MgSO4, 1.8 mM Ca(NO3)2 and 1.5 mM HEPES, pH 7.6). Each experiment was repeated 3 times for a total of 30 embryos or larvae analyzed per solvent per developmental staged tested. Data were only recorded for experiments in which the percentage of normal embryos or larvae in the control group was at least 90%. […] In determining the maximum tolerated concentration (MTC) for each solvent and carrier, all post-exposure embryos and larvae were allowed to develop in larva medium to 9 dpf, so as to detect any deleterious effects appearing after this 24-hour window. Solvents and carriers were obtained from the following suppliers: acetone (Chemlab, Zedelgem, Belgium), acetonitrile (Acros Organics, Geel, Belgium), albumin (BSA, Sigma-Aldrich, Bornem, Belgium), butanone (Riedel-de Haën, Seelze, Germany), cyclodextrin (2- hydroxypropyl-beta-cyclodextrin, Sigma-Aldrich), dimethyl formamide (Acros), DMSO (Agros), ethanol (Fisher Scientific, Doornik, Belgium), glycerol (Acros), isopropanol (Chemlab), methanol (Chemlab), polyethylene glycol-400 (Fluka, Bornem, Belgium), propylene glycol (Certa, Eigenbrakel, Belgium), solketal (Merck, Overijse, Belgium). Statistical analyses were done using chi-square in Microsoft Excel.
Twelve solvents and 2 carriers – chosen based solely on their potential utility for the solubilization and delivery of a structurally diverse range of small molecules – were analyzed for their effects on zebrafish embryos and larvae. The solvents included acetone, acetonitrile, butanone, dimethyl formamide, DMSO, ethanol, glycerol, isopropanol, methanol, polyethylene glycol (PEG-400), propylene glycol, and solketal, and the carriers included albumin (BSA) and cyclodextrin (2-hydroxypropyl-beta-cyclodextrin, or HPBCD). […] For this initial study, the effects of a 24-hour exposure to each solvent and carrier was analyzed using embryos and larvae at the following developmental stages: 2–4 cell, 4 hours-post fertilization (hpf), and 1, 2, 3, 4, and 7 days post-fertilization (dpf).

[1] = exposure for 24 hours beginning at 1 dpf
[2] = exposure for 24 hours beginning at 2 dpf
[3] = exposure for 24 hours beginning at 2–4 cell stage
[4] = exposure for 24 hours beginning at 3 dpf
[5] = exposure for 24 hours beginning at 4 dpf
[6] = exposure for 24 hours beginning at 4 hpf
[7] = exposure for 24 hours beginning at 5 dpf
[8] = exposure for 24 hours beginning at 7 dpf
[9] = exposure from 1 dpf, at the concentration in parentheses
[10] = exposure from 2 dpf, at the concentration in parentheses
[11] = exposure from 3 dpf, at the concentration in parentheses
[12] = 24 hours exposure from 2–4 cell stage
[13] = exposure from 7 dpf, at the concentration in parentheses

CCC(C)=O [Butanone (MEK), 2-butanone]
Lowest concentration at which an average penetrance of at least 50% was observed for the phenotypic effects (24 hours exposure from 1 dpf): 2%
Lowest concentration at which an average penetrance of at least 50% was observed for the phenotypic effects (24 hours exposure from 2 dpf): 2.5%
Lowest concentration at which an average penetrance of at least 50% was observed for the phenotypic effects (24 hours exposure from 3 dpf): 2%
Maximum-tolerated concentration (MTC) [1]: 1%
Maximum-tolerated concentration (MTC) [2]: 1.5%
Maximum-tolerated concentration (MTC) [3]: 0.5%
Maximum-tolerated concentration (MTC) (exposure for 24 hours beginning at 2–4 cell stage, listed as butanone): ≤ 0.5%
Maximum-tolerated concentration (MTC) [4]: 1.5%
Maximum-tolerated concentration (MTC) [5]: 1.5%
Maximum-tolerated concentration (MTC) [6]: 1%
Maximum-tolerated concentration (MTC) [7]: <0.5%
Maximum-tolerated concentration (MTC) (exposure for 24 hours beginning at 5 dpf, listed as butanone): ≤ 0.5%
Maximum-tolerated concentration (MTC) [8]: 0.5%
Maximum-tolerated concentration (MTC) (exposure for 24 hours beginning at 7 dpf, listed as butanone): ≤ 0.5%
Phenotypic effects above MTC after 24 hours (average penetrance at least 50%) [9]: IC MC PE
Phenotypic effects above MTC after 24 hours (average penetrance at least 50%) [10]: DD HJ
Phenotypic effects above MTC after 24 hours (average penetrance at least 50%) [11]: HJ SB

CC(O)COC[C@H]1O[C@@H]2O[C@H]3[C@H](O)[C@@H](O)[C@@H](O[C@H]4[C@H](O)[C@@H](O)[C@@H](O[C@H]5[C@H](O)[C@@H](O)[C@@H](O[C@H]6[C@H](O)[C@@H](O)[C@@H](O[C@H]7[C@H](O)[C@@H](O)[C@@H](O[C@H]8[C@H](O)[C@@H](O)[C@@H](O[C@H]1[C@H](O)[C@H]2O)O[C@@H]8COCC(C)O)O[C@@H]7COCC(C)O)O[C@@H]6COCC(C)O)O[C@@H]5COCC(C)O)O[C@@H]4COCC(C)O)O[C@@H]3COCC(C)O (stereo partly drawn) [Cyclodextrin (HPBCD), 2-hydroxypropyl-beta-cyclodextrin]
Maximum-tolerated concentration (MTC) [1]: 1%
Maximum-tolerated concentration (MTC) [2]: 1.5%
Maximum-tolerated concentration (MTC) [3]: 1%
Maximum-tolerated concentration (MTC) [4]: 1.5%
Maximum-tolerated concentration (MTC) [5]: 1%
Maximum-tolerated concentration (MTC) [6]: 0.5%
Maximum-tolerated concentration (MTC) [7]: 1.5%
Maximum-tolerated concentration (MTC) [8]: 1%
MTC / tolerated concentration: 1%

CN(C)C=O [Dimethyl formamide (DMF), Dimethyl formamide]
Lowest concentration at which an average penetrance of at least 50% was observed for the phenotypic effects (24 hours exposure from 1 dpf): 0.5%
Lowest concentration at which an average penetrance of at least 50% was observed for the phenotypic effects (24 hours exposure from 2 dpf): 1%
Lowest concentration at which an average penetrance of at least 50% was observed for the phenotypic effects [12]: 1%
Lowest concentration at which an average penetrance of at least 50% was observed for the phenotypic effects (24 hours exposure from 3 dpf): 1%
Lowest concentration at which an average penetrance of at least 50% was observed for the phenotypic effects (24 hours exposure from 4 dpf): 1%
Lowest concentration at which an average penetrance of at least 50% was observed for the phenotypic effects (24 hours exposure from 4 hpf): 1%
Lowest concentration at which an average penetrance of at least 50% was observed for the phenotypic effects (24 hours exposure from 5 dpf): 1.5%
Lowest concentration at which an average penetrance of at least 50% was observed for the phenotypic effects (24 hours exposure from 7 dpf): 0.5%
Maximum-tolerated concentration (MTC) [1]: <0.5%
Maximum-tolerated concentration (MTC) [2]: 0.5%
Maximum-tolerated concentration (MTC) [3]: 0.5%
Maximum-tolerated concentration (MTC) [4]: 0.5%
Maximum-tolerated concentration (MTC) [5]: 0.5%
Maximum-tolerated concentration (MTC) [6]: <0.5%
Maximum-tolerated concentration (MTC) [7]: 0.5%
Maximum-tolerated concentration (MTC) [8]: <0.5%
Phenotypic effects above MTC after 24 hours (average penetrance at least 50%) [9]: AP BH IC IM NB PE
Phenotypic effects above MTC after 24 hours (average penetrance at least 50%) [10]: AP HJ PE
Phenotypic effects above MTC after 24 hours (average penetrance at least 50%) [11]: HJ IC PE
Phenotypic effects above MTC after 24 hours (average penetrance at least 50%) (exposure from 4 dpf, at the concentration in parentheses): AP LP
Phenotypic effects above MTC after 24 hours (average penetrance at least 50%) (exposure from 4 hpf, at the concentration in parentheses): AP BC BS CF PE
Phenotypic effects above MTC after 24 hours (average penetrance at least 50%) (exposure from 5 dpf, at the concentration in parentheses): IM LP PE SB
Phenotypic effects above MTC after 24 hours (average penetrance at least 50%) [13]: HO LP
MTC / tolerated concentration: ≤ 0.5%

CCO [Ethanol, ethanol]
Lowest concentration at which an average penetrance of at least 50% was observed for the phenotypic effects (24 hours exposure from 1 dpf): 2%
Lowest concentration at which an average penetrance of at least 50% was observed for the phenotypic effects (24 hours exposure from 2 dpf): 2%
Lowest concentration at which an average penetrance of at least 50% was observed for the phenotypic effects [12]: 1.5%
Lowest concentration at which an average penetrance of at least 50% was observed for the phenotypic effects (24 hours exposure from 3 dpf): 2%
Lowest concentration at which an average penetrance of at least 50% was observed for the phenotypic effects (24 hours exposure from 4 dpf): 2%
Lowest concentration at which an average penetrance of at least 50% was observed for the phenotypic effects (24 hours exposure from 4 hpf): 1.5%
Lowest concentration at which an average penetrance of at least 50% was observed for the phenotypic effects (24 hours exposure from 5 dpf): 2.5%
Lowest concentration at which an average penetrance of at least 50% was observed for the phenotypic effects (24 hours exposure from 7 dpf): 1.5%
Maximum-tolerated concentration (MTC) [1]: 1%
Maximum-tolerated concentration (MTC) [2]: 1.5%
Maximum-tolerated concentration (MTC) [3]: 1%
Maximum-tolerated concentration (MTC) [4]: 1%
Maximum-tolerated concentration (MTC) [5]: 1.5%
Maximum-tolerated concentration (MTC) [6]: 0.5%
Maximum-tolerated concentration (MTC) [7]: 0.5%
Maximum-tolerated concentration (MTC) [8]: 1%

OCC(O)CO [Glycerol]
Lowest concentration at which an average penetrance of at least 50% was observed for the phenotypic effects (24 hours exposure from 1 dpf): 2%
Lowest concentration at which an average penetrance of at least 50% was observed for the phenotypic effects (24 hours exposure from 2 dpf): 2%
Lowest concentration at which an average penetrance of at least 50% was observed for the phenotypic effects [12]: 2.5%
Lowest concentration at which an average penetrance of at least 50% was observed for the phenotypic effects (24 hours exposure from 3 dpf): 2%
Lowest concentration at which an average penetrance of at least 50% was observed for the phenotypic effects (24 hours exposure from 4 hpf): 2%
Maximum-tolerated concentration (MTC) [1]: 1.5%
Maximum-tolerated concentration (MTC) [2]: 1.5%
Maximum-tolerated concentration (MTC) [3]: 1.5%
Maximum-tolerated concentration (MTC) [4]: 1.5%
Maximum-tolerated concentration (MTC) [5]: 2%
Maximum-tolerated concentration (MTC) [6]: 1.5%
Maximum-tolerated concentration (MTC) [7]: >2.5%
Maximum-tolerated concentration (MTC) (exposure for 24 hours beginning at 5 dpf, listed as glycerol): ≥ 2.5%
Maximum-tolerated concentration (MTC) [8]: >2.5%
Maximum-tolerated concentration (MTC) (exposure for 24 hours beginning at 7 dpf, listed as glycerol): ≥ 2.5%

CC(C)O [Isopropanol, isopropanol]
Lowest concentration at which an average penetrance of at least 50% was observed for the phenotypic effects (24 hours exposure from 1 dpf): 1%
Lowest concentration at which an average penetrance of at least 50% was observed for the phenotypic effects (24 hours exposure from 2 dpf): 2%
Lowest concentration at which an average penetrance of at least 50% was observed for the phenotypic effects (24 hours exposure from 3 dpf): 2%
Lowest concentration at which an average penetrance of at least 50% was observed for the phenotypic effects (24 hours exposure from 4 hpf): 1.5%
Lowest concentration at which an average penetrance of at least 50% was observed for the phenotypic effects (24 hours exposure from 7 dpf): 1%
Maximum-tolerated concentration (MTC) [1]: 0.5%
Maximum-tolerated concentration (MTC) [2]: 1%
Maximum-tolerated concentration (MTC) [3]: 0.5%
Maximum-tolerated concentration (MTC) [4]: 1.5%
Maximum-tolerated concentration (MTC) [5]: 0.5%
Maximum-tolerated concentration (MTC) [6]: 1%
Maximum-tolerated concentration (MTC) [7]: <0.5%
Maximum-tolerated concentration (MTC) [8]: 0.5%
Phenotypic effects above MTC after 24 hours (average penetrance at least 50%) [9]: AP IC
Phenotypic effects above MTC after 24 hours (average penetrance at least 50%) [10]: IC LP
Phenotypic effects above MTC after 24 hours (average penetrance at least 50%) [11]: BC IC IM HJ PE
Phenotypic effects above MTC after 24 hours (average penetrance at least 50%) [13]: IC LP NB PE

CO [Methanol, methanol]
Lowest concentration at which an average penetrance of at least 50% was observed for the phenotypic effects [12]: 2%
Lowest concentration at which an average penetrance of at least 50% was observed for the phenotypic effects (24 hours exposure from 3 dpf): 2.5%
Lowest concentration at which an average penetrance of at least 50% was observed for the phenotypic effects (24 hours exposure from 4 hpf): 2%
Lowest concentration at which an average penetrance of at least 50% was observed for the phenotypic effects (24 hours exposure from 7 dpf): 2.5%
Maximum-tolerated concentration (MTC) [1]: 1.5%
Maximum-tolerated concentration (MTC) [2]: >2.5%
Maximum-tolerated concentration (MTC) [3]: 1.5%
Maximum-tolerated concentration (MTC) [4]: 2%
Maximum-tolerated concentration (MTC) [5]: 1%
Maximum-tolerated concentration (MTC) [6]: 1.5%
Maximum-tolerated concentration (MTC) [7]: >2.5%
Maximum-tolerated concentration (MTC) [8]: 2%
Phenotypic effects above MTC after 24 hours (average penetrance at least 50%) (in vivo): NB LP
